In patent publication US7202265B2, “Indolinone combinatorial libraries and related products and methods for the treatment of disease” (Sugen, Inc., priority 1997, dated 2007):

These compounds were tested on human MET (assay: MET biochemical kinase assay).
Parameters: concentration or dose not given beside the values
Text: (d) MET Biochemical Kinase Assay
A met biochemical kinase assay may be performed for met generally as described above for other kinases by substituting that or the other kinases. In particular, ELISA plates are coated with goat anti-rabbit Fc antibodies, which are used to capture commercially available (from Santa Cruz Biotechnology) rabbit polyclonal antibodies to the cytoplasmic domain of human MET. […] The chimeric receptors, or MET, from these lysates are captured on the antibody coated plates. After washing away extraneous proteins, test compounds are added and an in vitro kinase assay is performed by addition of an appropriate kinase buffer (containing ATP, divalent metal ions, etc.). Incorporation of phosphate into the captured receptors is detected with an anti-phosphotyrosine antibody conjugate with horse radish peroxidase using TMB as a substrate for calorimetric detection.
For Cc1c(Br)ccc2c1C(=Cc1cc(C(C)(C)C)c(O)c(C(C)(C)C)c1)C(=O)N2 [10721/C11], the “Met Kinase % Inhibition” value was 3.7%.
With CNS(=O)(=O)c1ccc2c(c1)C(=Cc1cc([N+](=O)[O-])cc(CCl)c1O)C(=O)N2 [10721/D06] the “Met Kinase % Inhibition” value was 9.0%.
For CNS(=O)(=O)c1ccc2c(c1)C(=Cc1ccc(Cl)s1)C(=O)N2 [10721/D07], the “Met Kinase % Inhibition” value was −6.8%.
In the case of CNS(=O)(=O)c1ccc2c(c1)C(=Cc1ccc(O)c(C(C)(C)C)c1)C(=O)N2 [10721/D09], the “Met Kinase % Inhibition” value is reported as −4.9%.
O=C1Nc2ccc(S(=O)(=O)Nc3ccc(C(F)(F)F)cc3)cc2C1=Cc1cc([N+](=O)[O-])cc(CCl)c1O [10721/E06] was tested, and the “Met Kinase % Inhibition” value was 81.0%.
With CC(C)(C)c1cc(C=C2C(=O)Nc3ccc(S(=O)(=O)Nc4ccc(C(F)(F)F)cc4)cc32)ccc1O [10721/E09] the “Met Kinase % Inhibition” value was 0.7%.
Cc1cc(C=C2C(=O)Nc3ccc(S(=O)(=O)N4CCOCC4)cc32)sc1C [10721/F04] was tested, and the “Met Kinase % Inhibition” value was 26.0%.
With Cn1c(C=C2C(=O)Nc3ccc(CCCl)cc32)nc2ccccc21 [10721/G02] the “Met Kinase % Inhibition” value was 7.9%.
For O=C1Nc2ccc(CCCl)cc2C1=Cc1cc2c([nH]1)CCCC2 [10721/G05], the “Met Kinase % Inhibition” value was 8.6%.
O=C1Nc2ccc(CCCl)cc2C1=Cc1ccc(Cl)s1 [10721/G07] was tested, and the “Met Kinase % Inhibition” value was 10.0%.
In the case of Cc1cc(C)c(C=C2C(=O)Nc3ccc(CCCl)cc32)[nH]1 [10721/G08], the “Met Kinase % Inhibition” value is reported as −2.4%.
With CC(C)(C)c1cc(C=C2C(=O)Nc3ccc(CCCl)cc32)ccc1O [10721/G09] the “Met Kinase % Inhibition” value was 5.1%.
With CC(C)(C)c1cc(C=C2C(=O)Nc3ccc(CCCl)cc32)cc(Br)c1O [10721/G10] the “Met Kinase % Inhibition” value was 12.0%.
In the case of CC(C)(C)c1cc(C=C2C(=O)Nc3ccc(CCCl)cc32)cc(C(C)(C)C)c1O [10721/G11], the “Met Kinase % Inhibition” value is reported as −0.0%.
CCCCN(CCCC)c1ccc(C=C2C(=O)Nc3c(Br)cc(Br)cc32)cc1 [10722/A10] was tested, and the “Met Kinase % Inhibition” value was 79.0%.
CC(C)(C)c1cc(C=C2C(=O)Nc3ccc(I)cc32)cc(Cl)c1O [10722/B08] was tested, and the “Met Kinase % Inhibition” value was 72.0%.
For O=C1Nc2ccc(I)cc2C1=Cc1ccc(C(F)(F)F)cc1 [10722/B11], the “Met Kinase % Inhibition” value was 83.0%.
For CNS(=O)(=O)c1ccc2c(c1)C(=Cc1ccc(C(F)(F)F)cc1)C(=O)N2 [10722/D11], the “Met Kinase % Inhibition” value was 41.0%.
For O=C1Nc2ccc(S(=O)(=O)Nc3ccc(C(F)(F)F)cc3)cc2C1=Cc1ccc(C(=O)O)cc1 [10722/E05], the “Met Kinase % Inhibition” value was 73.0%.
With O=C1Nc2ccc(S(=O)(=O)Nc3ccc(C(F)(F)F)cc3)cc2C1=Cc1ccc(C(F)(F)F)cc1 [10722/E11] the “Met Kinase % Inhibition” value was 84.0%.
For CC(C)(C)c1cc(C=C2C(=O)Nc3ccc(CCCl)cc32)cc([N+](=O)[O-])c1O [10722/G02], the “Met Kinase % Inhibition” value was 43.0%.
O=C1Nc2ccc(CCCl)cc2C1=Cc1ccc(C(=O)O)cc1 [10722/G05] was tested, and the “Met Kinase % Inhibition” value was 9.7%.
In the case of O=C1Nc2ccc(CCCl)cc2C1=Cc1csc([N+](=O)[O-])c1 [10722/G09], the “Met Kinase % Inhibition” value is reported as 51.0%.
CCCCN(CCCC)c1ccc(C=C2C(=O)Nc3ccc(CCCl)cc32)cc1 [10722/G10] was tested, and the “Met Kinase % Inhibition” value was 27.0%.
With CC(C)(C)c1cc(C=C2C(=O)Nc3c(Br)cc(Br)cc32)c(O)c(C(C)(C)C)c1 [10723/A11] the “Met Kinase % Inhibition” value was 60.0%.
For Cc1c(Br)ccc2c1C(=Cc1ccc(O)cc1O)C(=O)N2 [10723/C08], the “Met Kinase % Inhibition” value was 83.0%.
In the case of Cc1c(Br)ccc2c1C(=Cc1cc(C(C)(C)C)cc(C(C)(C)C)c1O)C(=O)N2 [10723/C11], the “Met Kinase % Inhibition” value is reported as 47.0%.
CNS(=O)(=O)c1ccc2c(c1)C(=Cc1ccc(O)c(O)c1O)C(=O)N2 [10723/D02] was tested, and the “Met Kinase % Inhibition” value was 93.0%.
With CNS(=O)(=O)c1ccc2c(c1)C(=Cc1ccc(O)c(C)c1)C(=O)N2 [10723/D06] the “Met Kinase % Inhibition” value was 60.0%.
In the case of CNS(=O)(=O)c1ccc2c(c1)C(=Cc1cc(C(C)(C)C)cc(C(C)(C)C)c1O)C(=O)N2 [10723/D11], the “Met Kinase % Inhibition” value is reported as 42.0%.
O=C1Nc2ccc(S(=O)(=O)N3CCOCC3)cc2C1=Cc1ccc(O)c(O)c1O [10723/F02] was tested, and the “Met Kinase % Inhibition” value was 99.0%.
